# Measurements: PMC9596378, “Discovery and molecular basis of subtype-selective cyclophilin inhibitors” (Nature Chemical Biology, 2022)
# pIC50: −log10 of the molar value. Where “and” joins values, the source holds several entries; their conditions need not be identical. Equal entries are not always repeated.
# Experiments:
# Assay in all cases: Chymotrypsin coupled prolyl-isomerase assay
# Format in all cases: biochemical
# CypA = target: T1, CypA (Homo sapiens, UniProt P62937); conditions: for prolyl-isomerase activity (raw dose-response value): CypA, in s^-1
# T1 construct: PPIA (UniProtKB Entry P62937: residues 1–165); made in house; host or cells: E. coli BL21(DE3)
# In short: (§1)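 Steps: cyclophilin plus compound 5 min at 2–3 °C; α-chymotrypsin added, 5 min more; Suc-AAPF-AMC substrate in LiCl/trifluoroethanol injected and fluorescence followed 330 s. Finals: 5 nM enzyme, 25 µM chymotrypsin, 5 µM substrate, 0.25% DMSO.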
# CypC = target: T2, CypC (Homo sapiens, UniProt P45877); conditions: for prolyl-isomerase activity (raw dose-response value): CypC, in s^-1
# T2 construct: PPIC (UniProtKB Entry P45877: residues 24–212); host or cells: E. coli BL21(DE3)
# In short: as §1
# CypE = target: T3, CypE (Homo sapiens, UniProt Q9UNP9); conditions: for prolyl-isomerase activity (raw dose-response value): CypE, in s^-1
# T3 construct: PPIE (UniProtKB Entry Q9UNP9: residues 131–301); host or cells: E. coli BL21(DE3)
# In short: as §1
# CypG = target: T4, CypG (Homo sapiens, UniProt Q13427); conditions: CypG, in s^-1
# T4 construct: PPIG (UniProtKB Entry Q13427: residues 1–179); His6 with thrombin site (pET28a LIC leader) (N); host or cells: E. coli BL21(DE3)
# T4 sequence (Q13427 1-179): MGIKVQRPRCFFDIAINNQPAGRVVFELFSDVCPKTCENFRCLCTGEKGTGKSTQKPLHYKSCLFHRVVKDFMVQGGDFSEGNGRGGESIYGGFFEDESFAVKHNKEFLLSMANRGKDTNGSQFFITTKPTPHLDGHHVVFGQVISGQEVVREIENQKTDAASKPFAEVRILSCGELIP
# In short: as §1
# T3 sequence (Q9UNP9 131-301): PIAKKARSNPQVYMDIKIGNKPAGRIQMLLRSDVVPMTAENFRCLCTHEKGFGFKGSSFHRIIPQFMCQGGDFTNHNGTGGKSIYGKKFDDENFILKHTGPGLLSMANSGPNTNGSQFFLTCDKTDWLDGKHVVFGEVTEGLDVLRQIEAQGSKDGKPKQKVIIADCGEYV
# T1 sequence (P62937 whole entry, the tested form may be a part): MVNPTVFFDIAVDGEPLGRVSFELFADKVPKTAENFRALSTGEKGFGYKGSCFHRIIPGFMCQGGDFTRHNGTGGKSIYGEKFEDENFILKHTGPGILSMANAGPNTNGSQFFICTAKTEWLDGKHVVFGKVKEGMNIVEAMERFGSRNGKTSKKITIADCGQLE
# T2 sequence (P45877 24-212): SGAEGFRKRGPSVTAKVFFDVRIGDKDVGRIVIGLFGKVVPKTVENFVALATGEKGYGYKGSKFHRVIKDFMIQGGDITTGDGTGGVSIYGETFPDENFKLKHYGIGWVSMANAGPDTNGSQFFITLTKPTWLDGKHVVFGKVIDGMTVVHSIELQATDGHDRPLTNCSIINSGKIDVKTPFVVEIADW
smiles,measurement,setting,value
NCCOCCNC(=O)[C@@H]1CCNC(=O)/C=C/C(=O)N2CCC[C@](Cc3ccccc3)(C2)C(=O)N[C@@H](Cc2ccc(-c3ccccc3)cc2)C(=O)NCc2ccccc2CC(=O)N1 [Compound B2],prolyl-isomerase activity (raw dose-response value),CypA; dose 0.00457247 µM,0.09251 and 0.1054 and 0.1209
same,prolyl-isomerase activity (raw dose-response value),CypA; dose 0.0137174 µM,0.07185 and 0.09383 and 0.08908
same,prolyl-isomerase activity (raw dose-response value),CypA; dose 0.0411523 µM,0.0832 and 0.08759 and 0.09561
same,prolyl-isomerase activity (raw dose-response value),CypA; dose 0.123457 µM,0.08468 and 0.0712 and 0.08817
same,prolyl-isomerase activity (raw dose-response value),CypA; dose 0.37037 µM,0.0566 and 0.04501 and 0.06387
same,prolyl-isomerase activity (raw dose-response value),CypA; dose 1.11111 µM,0.03625 and 0.03272 and 0.04381
same,prolyl-isomerase activity (raw dose-response value),CypA; dose 3.33333 µM,0.02153 and 0.02404 and 0.02804
same,prolyl-isomerase activity (raw dose-response value),CypA; dose 10 µM,0.01608 and 0.01935 and 0.02238
same,pIC50,"CypA; wild-type CypA, read-out: Wild-Type Cyclophilin Prolyl Isomerase Inhibition IC50 Values, CypA",6.62
same,prolyl-isomerase activity (raw dose-response value),CypC; dose 0.00976562 µM,0.05723 and 0.05806 and 0.05564
same,prolyl-isomerase activity (raw dose-response value),CypC; dose 0.0195312 µM,0.05812 and 0.0569 and 0.05659
same,prolyl-isomerase activity (raw dose-response value),CypC; dose 0.0390625 µM,0.05511 and 0.05318 and 0.05171
same,prolyl-isomerase activity (raw dose-response value),CypC; dose 0.078125 µM,0.04827 and 0.04606 and 0.04304
same,prolyl-isomerase activity (raw dose-response value),CypC; dose 0.15625 µM,0.04287 and 0.04429 and 0.04035
same,prolyl-isomerase activity (raw dose-response value),CypC; dose 0.3125 µM,0.03472 and 0.03475 and 0.034
same,prolyl-isomerase activity (raw dose-response value),CypC; dose 0.625 µM,0.02805 and 0.0282 and 0.0272
same,prolyl-isomerase activity (raw dose-response value),CypC; dose 1.25 µM,0.02258 and 0.02214 and 0.02094
same,prolyl-isomerase activity (raw dose-response value),CypC; dose 2.5 µM,0.01704 and 0.018 and 0.01642
same,prolyl-isomerase activity (raw dose-response value),CypC; dose 5 µM,0.01304 and 0.01485 and 0.01185
same,prolyl-isomerase activity (raw dose-response value),CypC; dose 10 µM,0.009494 and 0.009626 and 0.009002
same,pIC50,"CypC; wild-type CypC, read-out: Wild-Type Cyclophilin Prolyl Isomerase Inhibition IC50 Values, CypC",6.42
same,prolyl-isomerase activity (raw dose-response value),CypE; dose 0.00976562 µM,0.1022 and 0.09371 and 0.09482
same,prolyl-isomerase activity (raw dose-response value),CypE; dose 0.0195312 µM,0.1041 and 0.09004 and 0.09109
same,prolyl-isomerase activity (raw dose-response value),CypE; dose 0.0390625 µM,0.08953 and 0.08464 and 0.08549
same,prolyl-isomerase activity (raw dose-response value),CypE; dose 0.078125 µM,0.08163 and 0.08105 and 0.08006
same,prolyl-isomerase activity (raw dose-response value),CypE; dose 0.15625 µM,0.07541 and 0.07108 and 0.06602
same,prolyl-isomerase activity (raw dose-response value),CypE; dose 0.3125 µM,0.0578 and 0.05386 and 0.0523
same,prolyl-isomerase activity (raw dose-response value),CypE; dose 0.625 µM,0.04345 and 0.04205 and 0.03853
same,prolyl-isomerase activity (raw dose-response value),CypE; dose 1.25 µM,0.03208 and 0.02851 and 0.02629
same,prolyl-isomerase activity (raw dose-response value),CypE; dose 2.5 µM,0.02324 and 0.0218 and 0.01925
same,prolyl-isomerase activity (raw dose-response value),CypE; dose 5 µM,0.01397 and 0.01461 and 0.01313
same,prolyl-isomerase activity (raw dose-response value),CypE; dose 10 µM,0.008566 and 0.009565 and 0.009677
same,pIC50,"CypE; wild-type CypE, read-out: Wild-Type Cyclophilin Prolyl Isomerase Inhibition IC50 Values, CypE",6.52
same,prolyl-isomerase activity (raw dose-response value),CypG; dose 6.25 µM,0.07439 and 0.0801 and 0.0712
same,prolyl-isomerase activity (raw dose-response value),CypG; dose 12.5 µM,0.06556 and 0.07016 and 0.06297
same,prolyl-isomerase activity (raw dose-response value),CypG; dose 25 µM,0.0539 and 0.06023 and 0.05271
same,prolyl-isomerase activity (raw dose-response value),CypG; dose 50 µM,0.04026 and 0.03816 and 0.04547
same,prolyl-isomerase activity (raw dose-response value),CypG; dose 100 µM,0.02765 and 0.03143
